Reference: patent EP0432983A2 (priority 1989, dated 1991)
Converted amounts (≈) assume the structure as drawn.

What was measured:
HSV-1 [1] = assay: Inhibition of HSV-1 replication (anti-viral effect), PFU determination; format: cell-based; conditions: Human alphaherpesvirus 1; HSV-1 replication in CV-1 cells, 10 PFU per cell, 24 hours after infection
Method: 16mm dia. wells are seeded each with 2 x 10⁵ CV-1 cells in 1ml aliquots of MEM10C. After three days, the cells are infected with HSV-1 at 10 PFU (Plaque Forming Units) per cell. The inoculum is replaced, after adsorption for 1.5 hours, in pairs of wells with 0. 5 ml aliquots of MEM5C containing the test concentrations of each of AH-1 and AH-2. Four hours from infection, the cells from two wells are scraped into the medium and frozen to -80°C. [The average of PFU/ml of these samples forms the base for calculating net virus production]. The remaining samples are collected in pairs of wells 24 hours after infection and are also frozen to -80°C. For determination of PFU/ml, each sample is diluted to 10⁻⁸.

CV-1 cells = assay: Inhibition of growth of CV-1 cells (cytotoxic effect); format: cell-based, monkey
Method: CV-1 cells are seeded into 16 mm dia. wells at 10⁴ cells per well in 1ml aliquots of MEM10C. The following day, the medium is replaced with 0.5 ml aliquots of MEM10C containing the test concentrations of compounds AH-1 and AH-2, i. e. 0, 0.1, 0.5, 1, 5, 10 and 50 µg/ml. Determinations are all carried out in duplicate. Four days after seeding, the cells are trypsinised and counted. Percentage inhibition (%I) relative to the wells without test compound (i.e. the controls) is calculated and the IC₅₀ determined.

[2] = test system: L-1210 cells (mouse lymphoma); assay: Activity against L-1210 cells; format: cell-based
[3] = test system: CV-1 (monkey kidney fibroblast cells); assay: Toxicity throughout the CV-1 cell sheet (Table 3); format: cell-based
Method: (§1) This test is performed according to standard procedures for determination of cytotoxicity of a compound againt virus infected cells. In the present case, CV-1 (monkey kidney fibroblast cells) are infected with HSV-1 and the compounds of the invention tested against these at varying concentrations.
(§2) The numbers show the toxicity throughout the CV-1 cells sheet. (-) indicates no reduction in viral plaque production (+) indicates a 50% reduction in viral plaque production (++) indicates an 80% reduction in viral plaque production.

[4] = test system: VSV (Vesicular Stomatitis Virus); format: cell-based
HSV-1 [5] = assay: Viral plaque reduction in HSV-1 infected CV-1 cells (Table 3); format: cell-based; design: key: (-) indicates no reduction in viral plaque production; (+) indicates a 50% reduction in viral plaque production; (++) indicates an 80% reduction in viral plaque production
Method: as §1, §2

Cc1cc2c(c3c1OCO3)C(C)CCC2C(C)CC(=O)CC(C)C (stereo not shown) [AH-2, Helioporin B]
IC50 (HSV-1 [1]): 1.6 µg/mL (≈ 4.84 µM)
inhibition of growth (CV-1 cells; CV-1 cells, 0.1, 0.5, 1, 5, 10 and 50 µg/ml): no inhibition of growth
IC50 (CV-1 cells; Primates, 96 h, CV-1 cell growth, counted four days after seeding): > 50 µg/mL
activity against L-1210 cells [2]: no activity
toxicity throughout the CV-1 cells sheet ([3]; 5µl of 500µg/ml in MeOH/Acet): 0
toxicity throughout the CV-1 cells sheet ([3]; 10µl of 500µg/ml in MeOH/Acet): 0
toxicity throughout the CV-1 cells sheet ([3]; 20µl of 500µg/ml in MeOH/Acet): 0
toxicity throughout the CV-1 cells sheet ([3]; 40µl of 500µg/ml in MeOH/Acet): 0
activity against VSV [4]: no activity
reduction in viral plaque production (HSV-1 [5]; 5µl of 500µg/ml in MeOH/Acet): -
reduction in viral plaque production (HSV-1 [5]; 10µl of 500µg/ml in MeOH/Acet): -
reduction in viral plaque production (HSV-1 [5]; 20µl of 500µg/ml in MeOH/Acet): + ((+) indicates a 50% reduction in viral plaque production)
reduction in viral plaque production (HSV-1 [5]; 40µl of 500µg/ml in MeOH/Acet): ++ ((++) indicates an 80% reduction in viral plaque production)
